Assay results as given in US20260043803A1, “MEANS FOR DETECTING S[…]” (ACADEMISCH ZIEKENHUIS LEIDEN (H.O.D.N. LUMC), priority 2022, published 2026).

How the values were obtained:
IgG antibodies = test: Microarray, serum IgG binding to printed CAA structures, controlled human infection samples; details: three individual sera, FIG. 14
Excerpt: (§1) Immunopurified native schistosome CAA, synthetic di-, tetra-, hexa-, and octasaccharides with appropriate positive and negative controls were printed in triplicates onto epoxilane coated glass slides (Nexterion Slide E, Schott 1066643) with a MicroGrid robot (BioRobotics). See general methodology in (de Boer, Hokke et al. 2007).
(§2) Microarrays with fitted silicone gaskets (64 samples/slide) were reconstituted in 1×PBS and blocked for minimum one hour (PBS, 2% bovine serum albumin (Sigma-Aldrich A3059) with 50 mM ethanolamine (>99.5%, Sigma-Aldrich 411000)) on shaker. Each array washed in PBS Tween 0.05%, PBS and 30 ul serum sample 1:100 in buffer/array added for 1 hour incubation at room temperature on shaker. Arrays were then washed (as above) and 1:1000 detection antibodies added (goat anti-human IgG-Cy-3, Sigma-Aldrich C2571; goat anti-human IgM-AF647, Invitrogen, A21249) for 30 min room temperature incubation on shaker. Finally, slides were washed as above with an additional wash in milli-Q before they were spun dry and scanned (Agilent Scan Control™ 2006). […]
(§3) Microarray scan images were obtained through Agilent Feature Extraction 10.7.3.1 and imported into GenePixPro vs7. Spot morphology quality was inspected and median fluorescence intensity (MFI) values obtained per nanodot with an average of a triplicate per target used for analyses. […]

IgM antibodies = test: Microarray, serum IgM binding to printed CAA structures, controlled human infection samples; details: individual level, infection with 10, 20, 30 cercariae; FIG. 3-5
Excerpt: as §1
Microarrays with fitted silicone gaskets (64 samples/slide) were reconstituted in 1×PBS and blocked for minimum one hour (PBS, 2% bovine serum albumin (Sigma-Aldrich A3059) with 50 mM ethanolamine (>99.5%, Sigma-Aldrich 411000)) on shaker. Each array washed in PBS Tween 0.05%, PBS and 30 ul serum sample 1:100 in buffer/array added for 1 hour incubation at room temperature on shaker. Arrays were then washed (as above) and 1:1000 detection antibodies added (goat anti-human IgG-Cy-3, Sigma-Aldrich C2571; goat anti-human IgM-AF647, Invitrogen, A21249) for 30 min room temperature incubation on shaker. Finally, slides were washed as above with an additional wash in milli-Q before they were spun dry and scanned (Agilent Scan Control™ 2006). For nasosorption samples, they were incubated as above with the following changes. Samples were eluted in PBS 1% BSA 0.05% Triton-X and incubated as 1:2 dilution. For detection goat anti-human IgA-Dylight 650 (Novus NBP 1-75754) was used in 500×dilution.
(§4) Microarray scan images were obtained through Agilent Feature Extraction 10.7.3.1 and imported into GenePixPro vs7. Spot morphology quality was inspected and median fluorescence intensity (MFI) values obtained per nanodot with an average of a triplicate per target used for analyses. Further data processing was done in Microsoft Excel and graphs were generated using GraphPad Prism 9.3.1.

IgA antibodies [1] = test: Microarray, IgA binding in serum samples, controlled human infection; details: 20 cercariae, n=7, eight weeks post infection; FIG. 9
Excerpt: as §1
Microarrays with fitted silicone gaskets (64 samples/slide) were reconstituted in 1×PBS and blocked for minimum one hour (PBS, 2% bovine serum albumin (Sigma-Aldrich A3059) with 50 mM ethanolamine (>99.5%, Sigma-Aldrich 411000)) on shaker. Each array washed in PBS Tween 0.05%, PBS and 30 ul serum sample 1:100 in buffer/array added for 1 hour incubation at room temperature on shaker. […] Finally, slides were washed as above with an additional wash in milli-Q before they were spun dry and scanned (Agilent Scan Control™ 2006). […] Samples were eluted in PBS 1% BSA 0.05% Triton-X and incubated as 1:2 dilution. […]
as §4

IgA antibodies [2] = test: Microarray, IgA binding in nasosorption samples, controlled human infection; details: 20 cercariae, baseline and 8 weeks post infection; FIG. 10
Excerpt: as §1, §2, §3

Compound	IgM response pattern compared with native CAA (IgM antibodies)	IgM background at baseline (specificity) (IgM antibodies)	further results
6-aminohexyl 2-acetamido-2-deoxy-3-O-(3-D-glucoronic acid)-6-O-(2-acetamido-2-deoxy-3-O-(3-D-glucuronic acid)-6-O-(2-acetamido-2-deoxy-3-O-(β-D-glucuronic acid)-6-O-(2-acetamido-2-deoxy-3-O-(3-D-glucuronic acid)-6-O-(2-acetamido-2-deoxy-3-O-(3-D-glucuronic acid)-β-D-galactopyranose)-β-D-galactopyranose)-3-D-galactopyranose-β-D-galactopyranose [CAA decasaccharide]	–	–	IgG response at week 8 after infection (IgG antibodies; 20 male S. mansoni cercariae): equal or stronger than to shorter CAA fragments; IgG pre-infection response (IgG antibodies; prior to infection): negligible
CC(=O)NC1C(O[C@@H]2OC(C(=O)O)[C@@H](O)C(O)C2O)[C@@H](O)C(CO)O[C@H]1OCCCCCCN (stereo partly drawn) [disaccharide, 6-aminohexyl 2-acetamido-2-deoxy-3-O-(β-D-glucoronic acid)-β-D-galactopyranose]	not representative of CAA	–	–
CC(=O)NC1C(O[C@@H]2OC(C(=O)O)[C@@H](O)C(O)C2O)[C@@H](O)C(CO)O[C@H]1OCC1O[C@@H](OCC2O[C@@H](OCC3O[C@@H](OCCCCCCN)C(NC(C)=O)C(O[C@@H]4OC(C(=O)O)[C@@H](O)C(O)C4O)[C@H]3O)C(NC(C)=O)C(O[C@@H]3OC(C(=O)O)[C@@H](O)C(O)C3O)[C@H]2O)C(NC(C)=O)C(O[C@@H]2OC(C(=O)O)[C@@H](O)C(O)C2O)[C@H]1O (some centres unmarked) [octasaccharide]	–	improves further	detection of specific IgA in serum (IgA antibodies [1]): detection; detection of specific IgA in nasosorption samples (IgA antibodies [2]): detectable
CC(=O)NC1C(O[C@@H]2OC(C(=O)O)[C@@H](O)C(O)C2O)[C@@H](O)C(CO)O[C@H]1OCC1O[C@@H](OCCCCCCN)C(NC(C)=O)C(O[C@@H]2OC(C(=O)O)[C@@H](O)C(O)C2O)[C@H]1O (stereo partly drawn) [tetrasaccharide, 6-aminohexyl 2-acetamido-2-deoxy-3-O-(β-D-glucoronic acid)-6-O-(2-acetamido-2-deoxy-3-O-(β-D-glucuronic acid)-β-D-galactopyranose)-β-D-galactopyranose]	a dynamic range resembling native material is starting to appear	too high	–
